Measurements published in ChEMBL document CHEMBL1136169, “Design and synthesis of potent and selective macrocyclic thrombin inhibitors” (Bioorg Med Chem Lett, 2003).

Columns and labels:
Homo sapiens = organism: Homo sapiens; experiment: Concentration of inhibitor in human plasma required to double the activated partial thromboplastin time; format: functional
[1] = molecular target: Tissue-type plasminogen activator (Homo sapiens, UniProt P00750); experiment: Inhibitory activity against Tissue plasminogen activator
Prothrombin = Prothrombin (Homo sapiens, UniProt P00734); experiment: Inhibitory activity against thrombin IIa
Serine protease 1 = Serine protease 1 (Homo sapiens, UniProt P07477); experiment: Inhibitory activity against human trypsin
Chain of Serine protease 1 (P07477 whole entry): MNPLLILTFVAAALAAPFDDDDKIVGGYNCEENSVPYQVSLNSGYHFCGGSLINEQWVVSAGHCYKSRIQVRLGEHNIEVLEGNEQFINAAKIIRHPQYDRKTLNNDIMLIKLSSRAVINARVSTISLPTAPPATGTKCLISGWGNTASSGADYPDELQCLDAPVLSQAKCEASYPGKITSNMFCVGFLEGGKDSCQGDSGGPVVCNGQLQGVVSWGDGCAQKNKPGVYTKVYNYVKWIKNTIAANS

Chain of Tissue-type plasminogen activator (P00750 whole entry): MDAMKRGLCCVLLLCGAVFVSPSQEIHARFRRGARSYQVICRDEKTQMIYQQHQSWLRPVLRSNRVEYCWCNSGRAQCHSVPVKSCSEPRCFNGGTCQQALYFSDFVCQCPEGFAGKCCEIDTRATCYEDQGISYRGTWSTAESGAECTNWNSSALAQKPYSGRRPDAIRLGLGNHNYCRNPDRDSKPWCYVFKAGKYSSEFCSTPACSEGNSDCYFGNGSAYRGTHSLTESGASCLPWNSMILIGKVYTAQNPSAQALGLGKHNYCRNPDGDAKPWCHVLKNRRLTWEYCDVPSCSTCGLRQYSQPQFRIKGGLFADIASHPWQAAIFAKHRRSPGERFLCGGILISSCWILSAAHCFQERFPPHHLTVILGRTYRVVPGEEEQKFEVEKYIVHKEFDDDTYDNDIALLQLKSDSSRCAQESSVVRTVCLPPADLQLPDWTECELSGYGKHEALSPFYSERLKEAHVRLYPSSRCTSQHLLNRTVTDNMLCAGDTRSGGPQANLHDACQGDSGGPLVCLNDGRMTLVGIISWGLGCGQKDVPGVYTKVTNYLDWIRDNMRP

SMILES	Ki [1]	Ki (Prothrombin)	Ki (Serine protease 1)	2*APTT (Homo sapiens)
O=C1Cn2c(Cl)cnc(c2=O)N[C@@H](Cc2ccccc2)CNCCCCOc2ccc(Cl)cc2CN1	20 nM	0.2 nM	90 nM	0.74 µM
O=C1Cn2c(Cl)cnc(c2=O)N[C@@H](Cc2ccccc2)NCCCCCCOc2ccc(Cl)cc2CN1	–	0.13 nM	240 nM	3.17 µM
O=C1Cn2c(Cl)cnc(c2=O)N[C@@H](Cc2ccccc2)CNCCCNCCc2ccccc2CN1	640 nM	–	2100 nM	0.47 µM
O=C1Cn2c(Cl)cnc(c2=O)N[C@@H](Cc2ccccc2)CNCCCOc2ccc(Cl)cc2CN1	–	26 nM	–	–
CCN(CC)C(=O)CN[C@H](C(=O)N1CCC[C@H]1C(=O)NCc1cc(Cl)ccc1Cl)C1CCCCC1	–	0.31 nM	–	–
O=C1Cn2c(Cl)cnc(c2=O)N[C@@H](Cc2ccccc2)CNCCCCCOc2ccc(Cl)cc2CN1	6 nM	0.05 nM	80 nM	1.22 µM
CN1CCCCCOc2ccc(Cl)cc2CNC(=O)Cn2c(Cl)cnc(c2=O)N[C@@H](Cc2ccccc2)C1	3 nM	0.02 nM	40 nM	1.89 µM
O=C1Cn2c(Cl)cnc(c2=O)N[C@@H](Cc2ccccc2)CNC(=O)OCCCCOc2ccc(Cl)cc2CN1	–	0.63 nM	4000 nM	1.97 µM
O=C1COc2ccc(Cl)cc2CNC(=O)[C@@H]2CCCN2C(=O)C(C2CCCCC2)NC(=O)CCN1 (some centres undefined)	8900 nM	–	21500 nM	0.36 µM
O=C1Cn2c(Cl)cnc(c2=O)N[C@@H](Cc2ccccc2)CNC(=O)OC/C=C/COc2ccc(Cl)cc2CN1	480 nM	0.17 nM	580 nM	0.87 µM
O=C1Cn2c(Cl)cnc(c2=O)N[C@@H](Cc2ccccc2)CNC(=O)OC/C=C\COc2ccc(Cl)cc2CN1	6 nM	0.06 nM	110 nM	0.78 µM
O=C1Cn2c(Cl)cnc(c2=O)N[C@@H](Cc2ccccc2)CNCCOCCOc2ccc(Cl)cc2CN1	150 nM	0.05 nM	110 nM	0.56 µM
O=C1COc2ccc(Cl)cc2CNC(=O)[C@@H]2CCCN2C(=O)[C@@H](C2CCCCC2)NC(=O)CCCCN1	48000 nM	1.3 nM	7700 nM	0.36 µM
CCNC(=O)Oc1ccc(Cl)cc1CNC(=O)[C@@H]1CCCN1C(=O)[C@@H](N)C1CCCCC1	–	0.74 nM	–	–

Now from value to compound, other results behind:

Ki [1]	Ki (Prothrombin)	Ki (Serine protease 1)	SMILES	2*APTT (Homo sapiens)
5600 nM	2.9 nM	9300 nM	O=C1COc2ccc(Cl)cc2CNC(=O)[C@@H]2CCCN2C(=O)[C@@H](C2CCCCC2)NC(=O)CN1	0.69 µM
–	560 nM	–	O=C1Cn2c(Cl)cnc(c2=O)N[C@@H](Cc2ccccc2)CNCCOc2ccc(Cl)cc2CN1	–
360 nM	2.5 nM	6700 nM	O=C1Cn2c(Cl)cnc(c2=O)N[C@@H](Cc2ccccc2)CNCCCCCOc2ccccc2CN1	0.6 µM
165000 nM	0.51 nM	41000 nM	O=C1Cn2c(Cl)cnc(c2=O)N[C@@H](Cc2ccccc2)CNCCCCNCc2ccccc2CN1	0.43 µM
4300 nM	0.4 nM	5000 nM	O=C1COc2ccc(Cl)cc2CNC(=O)[C@@H]2CCCN2C(=O)[C@@H](C2CCCCC2)NC(=O)CCCN1	0.31 µM
–	5 nM	–	N[C@H](C(=O)N1CCC[C@H]1C(=O)NCc1cc(Cl)ccc1Cl)C1CCCCC1	–
3200 nM	2.1 nM	4600 nM	O=C1Cn2c(Cl)cnc(c2=O)N[C@@H](Cc2ccccc2)CNCCOCCOc2ccccc2CN1	0.39 µM
3900 nM	3 nM	17000 nM	CN1CCOc2ccccc2CNC(=O)Cn2c(Cl)cnc(c2=O)N[C@@H](Cc2ccccc2)CNC(=O)C1	0.5 µM
